The subject of one assay is LS513 (KRAS^G12D). Description: In vitro cell growth inhibition, CRC. It counts as cell-based. The settings on record: Homo sapiens, LS-513.
Assay [1] concerns MEK and ERK phosphorylation in Calu-6 (KRAS^Q61K) cells. Description: Inhibition of MEK and ERK phosphorylation, KRAS mutant. Format: cell-based. The settings on record: Homo sapiens, NSCLC Cau-6 (Calu-6), 2 hr treatment.
Another assay deals with HCT116 (KRAS^G13D). Description: In vitro cell growth inhibition, CRC. Format: cell-based. To be noted: Homo sapiens, HCT-116.
Another assay has as its system LS174T (KRAS^G12D). The experiment in a line: In vitro cell growth inhibition, CRC. It counts as cell-based. The settings on record: Homo sapiens.
The subject of a further assay is Calu-1 (KRAS^G12C). The experiment in a line: In vitro cell growth inhibition, NSCLC. It counts as cell-based. To be noted: Homo sapiens.
Assay [2] concerns MEK and ERK phosphorylation in HCT116 (KRAS^G13D) cells. Description: Inhibition of MEK and ERK phosphorylation, KRAS mutant. Format: cell-based. The settings on record: Homo sapiens, HCT-116, CRC HCT116, KRAS G13D, 2 hr treatment.
The next assay concerns P-MEK / total MEK. The experiment in a line: % P/T-MEK (ratio of P-MEK and total MEK). The method, then:
Belvarafenib was evaluated to measure the inhibition capability of RAF monomers and dimers. In Table 12: “A375” refers to the A375 a human melanoma cell line bearing a BRAF^V600E mutation; “IPC298” refers to the IPC298 cutaneous melanoma cell line bearing an NRAS^Q61L mutation; “A549” refers to the A549 lung adenocarcinoma cell line baring a KRAS mutation; “CSFR1” refers to the CSFR1 gene; “DDR1” refers to discoidin domain receptors DDR1; and “DDR2” refers to discoidin domain receptors DDR2. In Table 13: “% P/T−MEK” refers to the ratio of P-MEK and total MEK; “Conc 1” refers to an inhibitor first (lowest) concentration; “Conc 2” refers to an inhibitor second (intermediate) concentration; and “Conc 3” refers to an inhibitor third (highest) concentration. In Table 13, LXH254 refers to a drug having CAS No.: 1800398-38-2 and the following structure: […]

Another assay deals with Lovo (KRAS^G13D). The experiment in a line: In vitro cell growth inhibition, CRC. It counts as cell-based. To be noted: Homo sapiens.
For a further assay, the system named is SK-MEL-28 (BRAF^V600E). The experiment in a line: In vitro cell growth inhibition, melanoma. Format: cell-based. To be noted: Homo sapiens, mean ± SD, n = 3.
The next assay relates to Calu-6 (KRAS^Q61K). Description: In vitro cell growth inhibition, NSCLC. It counts as cell-based. The settings on record: Homo sapiens.
A further assay concerns A375 (BRAF^V600E). Description: In vitro cell growth inhibition, melanoma. It counts as cell-based. To be noted: Homo sapiens, A-375, mean ± SD, n = 3.
The test system of the next assay is SK-MEL-30 (NRAS^Q61K). Description: In vitro cell growth inhibition, melanoma. To be noted: Homo sapiens, mean ± SD, n = 3. It counts as cell-based. The method, then: (§1) A G150 of 69, 57, 53, and 24 nM were determined for SK-MEL-28, A375, SK-MEL-2, and SK-MEL-30 cell lines, respectively.
In a further assay the test system is SK-MEL-2 (NRAS^Q61R). Description: In vitro cell growth inhibition, melanoma. It counts as cell-based. The settings on record: Homo sapiens, mean ± SD, n = 3. As for the experimental part: as §1
Assay [3] concerns MEK and ERK phosphorylation in Lovo (KRAS^G13D) cells. The experiment in a line: Inhibition of MEK and ERK phosphorylation, KRAS mutant. It counts as cell-based. To be noted: Homo sapiens, CRC Lovo, KRAS G13D, 2 hr treatment.
The next assay deals with B-CPAP (BRAF^V600E). Description: In vitro cell growth inhibition, thyroid cancer. Format: cell-based. To be noted: Homo sapiens, BCPAP.
A further assay relates to CAL-62 (KRAS^G12R). Description: In vitro cell growth inhibition, thyroid cancer. It counts as cell-based. To be noted: Homo sapiens.
The next assay has as its system FRO (BRAF^V600E). Description: In vitro cell growth inhibition, thyroid cancer. Format: cell-based.
The next assay deals with DDR1 (Homo sapiens, UniProt Q08345). The experiment in a line: In vitro kinase assay. The settings on record: confirmatory assay. It counts as biochemical. The method, then: (§2) The in vitro kinase inhibitory selectivity and activity of belvarafenib were evaluated in a kinase panel assay against 189 kinases and a subsequent confirmatory assay against selected kinases by using Z′-Lyte® biochemical assay, Lantha® binding assay and Adapter® assay.

For a further assay, the target named is CSF1R (FMS) (Homo sapiens, UniProt P07333). The experiment in a line: In vitro kinase assay. It counts as biochemical. To be noted: confirmatory assay. The method, then:
as §2

The next assay has as its target T1, DDR2 (Homo sapiens, UniProt Q16832).
T1 sequence (Q16832 22-855): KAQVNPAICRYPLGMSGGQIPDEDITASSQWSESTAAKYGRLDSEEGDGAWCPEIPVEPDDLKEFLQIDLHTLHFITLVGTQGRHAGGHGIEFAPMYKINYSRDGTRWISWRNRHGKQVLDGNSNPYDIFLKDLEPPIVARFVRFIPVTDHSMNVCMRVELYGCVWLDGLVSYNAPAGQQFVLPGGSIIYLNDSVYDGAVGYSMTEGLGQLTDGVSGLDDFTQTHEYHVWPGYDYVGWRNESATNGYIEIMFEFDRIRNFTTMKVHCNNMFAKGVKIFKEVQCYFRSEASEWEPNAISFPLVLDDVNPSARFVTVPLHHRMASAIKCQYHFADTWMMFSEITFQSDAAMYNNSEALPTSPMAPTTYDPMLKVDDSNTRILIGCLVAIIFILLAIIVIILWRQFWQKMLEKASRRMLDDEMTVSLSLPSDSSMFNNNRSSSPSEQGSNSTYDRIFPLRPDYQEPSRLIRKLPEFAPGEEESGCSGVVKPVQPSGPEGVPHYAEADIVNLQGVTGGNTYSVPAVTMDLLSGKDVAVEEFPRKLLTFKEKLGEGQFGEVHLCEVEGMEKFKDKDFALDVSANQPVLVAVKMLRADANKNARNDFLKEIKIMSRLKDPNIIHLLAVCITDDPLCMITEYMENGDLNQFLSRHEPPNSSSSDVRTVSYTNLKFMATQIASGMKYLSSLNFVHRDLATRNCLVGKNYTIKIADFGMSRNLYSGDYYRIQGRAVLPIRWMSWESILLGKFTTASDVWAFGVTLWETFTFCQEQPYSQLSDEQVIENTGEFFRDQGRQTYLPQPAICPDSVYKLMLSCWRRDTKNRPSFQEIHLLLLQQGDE
Description: In vitro kinase assay. Format: biochemical. The settings on record: confirmatory assay. As for the experimental part: as §2

The subject of a further assay is SNU80 (BRAF^G468R). Description: In vitro cell growth inhibition, thyroid cancer. Format: cell-based.
Assay [4] relates to MEK and ERK phosphorylation in SK-MEL-2 (NRAS^Q61R) cells. Description: Inhibition of MEK and ERK phosphorylation. It counts as cell-based. To be noted: Homo sapiens.
In another assay the test system is SNU790 (BRAF^V600E). The experiment in a line: In vitro cell growth inhibition, thyroid cancer. It counts as cell-based. To be noted: SNU7890, BRAF^V600E.
The next assay has as its system NPA (BRAF^V600E). The experiment in a line: In vitro cell growth inhibition, thyroid cancer. Format: cell-based.
The next assay has as its system HT-29 (BRAF^V600E). The experiment in a line: In vitro cell growth inhibition, CRC. It counts as cell-based. The settings on record: Homo sapiens.
For the next assay, the system named is Colo-205 (BRAF^V600E). The experiment in a line: In vitro cell growth inhibition, CRC. Format: cell-based. The settings on record: Homo sapiens.
For assay [5], the system named is MEK and ERK phosphorylation in SK-MEL-30 (NRAS^Q61K) cells. Description: Inhibition of MEK and ERK phosphorylation. It counts as cell-based. To be noted: Homo sapiens.
For the next assay, the system named is 8505C (BRAF^V600E). Description: In vitro cell growth inhibition, thyroid cancer. The settings on record: Homo sapiens. It counts as cell-based.
The test system of assay [6] is MEK and ERK phosphorylation in SK-MEL-28 (BRAF^V600E) cells. Description: Inhibition of MEK and ERK phosphorylation. It counts as cell-based. The settings on record: Homo sapiens.
Assay [7] has as its system MEK and ERK phosphorylation in A375 (BRAF^V600E) cells. Description: Inhibition of MEK and ERK phosphorylation. The settings on record: Homo sapiens. It counts as cell-based.
For the next assay, the system named is ARO (BRAF^V600E). Description: In vitro cell growth inhibition, thyroid cancer. It counts as cell-based.
Another assay concerns NRAS-mutant melanoma. To be noted: NRAS-mutant melanoma patients, NEMO study; cited from earlier work.
[8] abbreviates: Conc 1, first (lowest) concentration.
Where [9] appears, read: Conc 2, second (intermediate) concentration.
Setting [10] is: Conc 3, third (highest) concentration.

Here are results for four molecules from patent US20230233567A1, “BELVARAFENIB FOR USE IN CANCER TREATMENT” (Hanmi Pharm. Co., Ltd., priority 2020, published 2023).

Where two headings read alike, the source gives them in different places.

Sequence of DDR1 (Q08345 19-913): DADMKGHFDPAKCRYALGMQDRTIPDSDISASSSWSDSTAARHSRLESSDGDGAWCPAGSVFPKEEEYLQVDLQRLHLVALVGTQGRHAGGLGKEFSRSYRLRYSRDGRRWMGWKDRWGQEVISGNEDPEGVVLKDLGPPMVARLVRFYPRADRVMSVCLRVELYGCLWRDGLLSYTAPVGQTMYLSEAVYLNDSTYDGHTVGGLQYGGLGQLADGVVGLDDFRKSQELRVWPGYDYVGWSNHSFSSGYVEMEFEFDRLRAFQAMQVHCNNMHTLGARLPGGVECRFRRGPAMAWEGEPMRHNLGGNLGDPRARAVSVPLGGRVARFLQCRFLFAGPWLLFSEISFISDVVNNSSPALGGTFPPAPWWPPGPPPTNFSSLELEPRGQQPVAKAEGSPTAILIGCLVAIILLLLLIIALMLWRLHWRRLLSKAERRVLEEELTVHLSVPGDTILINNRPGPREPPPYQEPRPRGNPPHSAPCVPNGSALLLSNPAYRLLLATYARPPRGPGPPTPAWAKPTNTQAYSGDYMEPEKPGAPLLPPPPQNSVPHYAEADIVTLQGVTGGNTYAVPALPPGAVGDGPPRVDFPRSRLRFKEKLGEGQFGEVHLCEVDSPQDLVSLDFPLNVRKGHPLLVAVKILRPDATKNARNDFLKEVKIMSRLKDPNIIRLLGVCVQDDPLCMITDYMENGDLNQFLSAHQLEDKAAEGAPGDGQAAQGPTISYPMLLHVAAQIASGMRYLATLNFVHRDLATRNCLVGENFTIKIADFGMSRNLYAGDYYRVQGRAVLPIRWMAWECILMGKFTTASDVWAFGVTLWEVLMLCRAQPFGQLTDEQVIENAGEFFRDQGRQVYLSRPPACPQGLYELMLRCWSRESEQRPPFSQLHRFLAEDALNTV
Sequence of CSF1R (FMS) (P07333 20-972): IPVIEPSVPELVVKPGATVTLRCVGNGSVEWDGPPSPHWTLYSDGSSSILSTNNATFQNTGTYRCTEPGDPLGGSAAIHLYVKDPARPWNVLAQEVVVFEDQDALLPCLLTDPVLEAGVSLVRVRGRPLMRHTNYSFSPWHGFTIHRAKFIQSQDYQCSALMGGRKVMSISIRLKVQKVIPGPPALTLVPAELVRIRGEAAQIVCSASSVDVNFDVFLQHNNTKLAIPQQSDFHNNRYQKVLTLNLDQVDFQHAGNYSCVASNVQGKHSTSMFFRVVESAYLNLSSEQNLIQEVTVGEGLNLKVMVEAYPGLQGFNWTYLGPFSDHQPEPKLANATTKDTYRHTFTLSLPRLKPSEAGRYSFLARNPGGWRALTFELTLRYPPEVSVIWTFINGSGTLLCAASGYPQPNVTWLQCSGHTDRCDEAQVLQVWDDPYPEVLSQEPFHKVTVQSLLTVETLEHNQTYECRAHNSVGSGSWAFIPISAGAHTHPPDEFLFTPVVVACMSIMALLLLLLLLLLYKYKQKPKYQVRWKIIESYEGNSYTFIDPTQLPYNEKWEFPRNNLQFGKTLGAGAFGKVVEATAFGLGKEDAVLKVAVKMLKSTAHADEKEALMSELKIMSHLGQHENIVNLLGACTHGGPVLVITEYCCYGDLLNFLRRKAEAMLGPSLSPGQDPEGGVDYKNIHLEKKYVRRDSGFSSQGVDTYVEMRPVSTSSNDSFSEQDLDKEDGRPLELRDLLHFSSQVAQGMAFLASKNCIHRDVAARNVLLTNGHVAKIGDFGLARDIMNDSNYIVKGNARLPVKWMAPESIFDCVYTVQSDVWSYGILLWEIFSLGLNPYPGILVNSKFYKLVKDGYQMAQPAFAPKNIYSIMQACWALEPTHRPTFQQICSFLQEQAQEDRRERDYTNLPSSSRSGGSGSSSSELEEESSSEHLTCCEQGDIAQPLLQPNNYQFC

As usually defined, the GI50 is the concentration at which growth is held to half of that of the control. Low values mean greater sensitivity of the cells, high ones lower sensitivity of the cells. One may read the IC50 as the concentration that inhibits the measured activity by half. With `CC(C)(C)c1nc(-c2cccc(NS(=O)(=O)c3c(F)cccc3F)c2F)c(-c2ccnc(N)n2)s1` [Dabrafenib], the 50% growth inhibitory concentration (GI50) in the assay on LS513 (KRAS^G12D) is 3060 nM; in the assay with HCT116 (KRAS^G13D), over 10000 nM; with LS174T (KRAS^G12D), over 10000 nM; in the assay on Calu-1 (KRAS^G12C) it was 904 nM; in the assay on Lovo (KRAS^G13D) it was 214 nM; in the assay with SK-MEL-28 (BRAF^V600E) it was under 0.1 nM. Besides, the GI50 with Calu-6 (KRAS^Q61K) was 618 nM; in the assay with A375 (BRAF^V600E), under 0.1 nM; in the assay on SK-MEL-30 (NRAS^Q61K), 258 nM; in the assay on SK-MEL-2 (NRAS^Q61R) it was 204 nM. The IC50 in [1] (read-out: IC50 pERK), in [1] (read-out: IC50 pMEK), in [2] (read-out: IC50 pERK), in assay [2] (read-out: IC50 pMEK), in [3] (read-out: IC50 pERK) and in assay [3] (read-out: IC50 pMEK) was over 10000 nM in each case. Besides, the “% P/T-MEK” value stood at 125% in the assay on P-MEK / total MEK (setting [8]), 150% with P-MEK / total MEK (setting [9]) and 75% with P-MEK / total MEK (setting [10]).
Consider `Cc1ccc(NC(=O)c2ccnc(C(F)(F)F)c2)cc1-c1cc(OCCO)nc(N2CCOCC2)c1` [LXH254], for which the entries for the “% P/T-MEK” value in the assay with P-MEK / total MEK (setting [8]), with P-MEK / total MEK (setting [9]) and in the assay with P-MEK / total MEK (setting [10]) were 80%, 70% and 10%, respectively.
As to `CCCS(=O)(=O)Nc1ccc(F)c(C(=O)c2c[nH]c3ncc(-c4ccc(Cl)cc4)cc23)c1F` [Vemurafenib, reference compound], the GI50 in the assay with B-CPAP (BRAF^V600E) is 31 nM; in the assay with LS513 (KRAS^G12D), over 10000 nM; with CAL-62 (KRAS^G12R) it was over 10000 nM; in the assay on FRO (BRAF^V600E), 1760 nM; in the assay on HCT116 (KRAS^G13D), over 10000 nM; in the assay with SNU80 (BRAF^G468R), 2850 nM. Besides, the 50% growth inhibitory concentration (GI50) with SNU790 (BRAF^V600E) is 190 nM; with LS174T (KRAS^G12D), over 10000 nM; with Calu-1 (KRAS^G12C), 7480 nM; in the assay with NPA (BRAF^V600E) it was 44 nM; with HT-29 (BRAF^V600E), 110 nM; in the assay with Colo-205 (BRAF^V600E), 65 nM. The GI50 with Lovo (KRAS^G13D) was 4020 nM; with 8505C (BRAF^V600E), 3440 nM; in the assay with SK-MEL-28 (BRAF^V600E), 77 ± 17 nM; in the assay with Calu-6 (KRAS^Q61K) it was over 10000 nM; with ARO (BRAF^V600E), 5260 nM; with A375 (BRAF^V600E) it was 75 ± 12 nM. Also, the GI50 in the assay with SK-MEL-30 (NRAS^Q61K) and with SK-MEL-2 (NRAS^Q61R) was over 10000 nM throughout. Moreover, the IC50 (in assay [1] (read-out: IC50 pERK); in assay [1] (read-out: IC50 pMEK); at DDR1; on CSF1R (FMS); against DDR2; in [4] (read-out: IC50 pERK)) was over 10000 nM in each case. Moreover, the IC50 is over 10000 nM in assay [4] (read-out: IC50 pMEK); over 10000 nM in [2] (read-out: IC50 pERK); over 10000 nM in assay [2] (read-out: IC50 pMEK); over 10000 nM in assay [5] (read-out: IC50 pERK); over 10000 nM in [5] (read-out: IC50 pMEK); 28 nM in assay [6] (read-out: IC50 pERK). Also, the IC50 is 32 nM in [6] (read-out: IC50 pMEK); 20 nM in assay [7] (A-375, read-out: IC50 pERK); 73 nM in [7] (A-375, read-out: IC50 pMEK); over 10000 nM in assay [3] (read-out: IC50 pERK); over 10000 nM in assay [3] (read-out: IC50 pMEK).
As for `Cn1cnc2c(F)c(Nc3ccc(Br)cc3F)c(C(=O)NOCCO)cc21` [binimetinib], in the assay on NRAS-mutant melanoma, the mPFS is reported as 2.8 months and the overall response rate is listed as 15%.
